This passage reports IC50 results from patent publication US20220152031A1, “PYRIDAZINONES AND METHODS OF USE THEREOF” (Goldfinch Bio, Inc., priority 2019, published 2022).

The assay concerns the target T1, TRPC5 (Homo sapiens, UniProt Q9UL62).
T1 construct: expressed in transfected cells
T1 sequence (Q9UL62 1-973): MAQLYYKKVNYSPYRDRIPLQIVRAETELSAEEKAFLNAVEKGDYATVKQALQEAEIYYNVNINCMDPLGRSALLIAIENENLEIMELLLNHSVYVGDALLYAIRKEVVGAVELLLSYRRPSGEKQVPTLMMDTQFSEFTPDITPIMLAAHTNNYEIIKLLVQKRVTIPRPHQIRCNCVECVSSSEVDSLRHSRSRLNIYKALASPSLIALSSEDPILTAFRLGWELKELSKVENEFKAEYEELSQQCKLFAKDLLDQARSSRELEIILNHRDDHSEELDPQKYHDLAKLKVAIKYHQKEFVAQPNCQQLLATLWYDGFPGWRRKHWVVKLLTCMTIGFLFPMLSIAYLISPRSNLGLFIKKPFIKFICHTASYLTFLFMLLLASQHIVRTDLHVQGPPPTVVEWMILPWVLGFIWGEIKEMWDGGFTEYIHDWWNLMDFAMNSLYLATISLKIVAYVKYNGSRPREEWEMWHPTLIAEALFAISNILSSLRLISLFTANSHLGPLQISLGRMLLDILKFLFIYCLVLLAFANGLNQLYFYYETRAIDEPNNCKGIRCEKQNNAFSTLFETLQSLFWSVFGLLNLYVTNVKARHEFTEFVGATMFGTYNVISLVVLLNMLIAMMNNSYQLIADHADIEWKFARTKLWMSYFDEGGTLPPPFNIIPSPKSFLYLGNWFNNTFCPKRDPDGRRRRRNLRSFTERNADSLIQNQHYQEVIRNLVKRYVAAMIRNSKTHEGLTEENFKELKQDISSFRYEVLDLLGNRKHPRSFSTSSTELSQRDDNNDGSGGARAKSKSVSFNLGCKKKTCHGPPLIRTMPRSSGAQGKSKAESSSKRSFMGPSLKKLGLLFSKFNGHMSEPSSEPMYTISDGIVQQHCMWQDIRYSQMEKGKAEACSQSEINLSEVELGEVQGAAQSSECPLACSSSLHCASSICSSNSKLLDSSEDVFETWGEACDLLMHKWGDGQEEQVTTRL
In words: TRPC5 activity assay (FLIPR calcium fluorescence, HEK-TREx hTRPC5 cells). Format: cell-based. Here is the method:
ICLN-1633 cells (HEK-TREx hTRPC5) expressing TRPC5 were generated as follows. Commercially available HekTrex-293 cells were seeded at 0.7×10^6 cells/well in a 1×6-well plate 24 hrs prior to transfection using 2 mL cell growth media containing no antibiotics (lx DMEM/high glucose (Hyclone #SH30022.02); 10% fetal bovine serum (Sigma) 2 mM sodium pyruvate, 10 mM HEPES). […] On day 2, 2 μg of plasmid DNA plus 6 μl of Xtreme-GENE HP reagent in Optimem (200 μl total volume) was prepared and incubated for 15 min at room temperature. This plasmid solution was then gently overlayed dropwise onto each well and the plate was gently swirled to mix complex with the media for approximately 30 seconds. Transfected cells were incubated at 37° C. in a 10% CO2 incubator for 24 hrs. The transfected cells were harvested and transferred into 2×150 mm dishes containing cell growth media with no antibiotics at 37° C.
The next day selection was initiated to generate a stable pool by adding cell growth media containing 150 μg/mL Hygromycin and 5 μg/mL Blasticidin and cells were allowed to grow. Media with the selection agent was changed every 1-2 days as needed to remove dead cells. After 7 days, the hygromycin concentration was reduced to 75 μg/mL and cells growth was allowed to continue.
Single clones were selected as follows. The stable pool was diluted to 10 cells/mL and seeded (100 μl/well) into 24×96 well plates (˜1 cell/well) and allowed to grow for 7 days in cell growth media. Fresh media (100 μl) was added and the cells allowed to grow for another 1-2 weeks and then stored frozen or used immediately.
10-point dose response curves were generated using the Echo-550 acoustic dispenser. Compound source plates were made by serially diluting compound stocks to create 10 mM, 1 mM, and 0.1 mM solutions in DMSO into Echo certified LDV plates. The Echo then serially spotted 100% DMSO stock solutions into source dose response plates to generate a 4-fold dilution scheme. 100% DMSO was added to the spotted dose response plates to bring the final volume to 5 μl. 300 nl of the dose response stock plate was then spotted into pre-incubation and stimulation assay plates. 50 μl of pre-incubation buffer and 100 μl of stimulation buffer was then added to the plates resulting in a final assay test concentration range of 30 μM to 0.0001 μM with a final DMSO concentration of 0.3%.
Human ICLN-1633 cells expressing were plated onto 384 well, black PDL-coated microplates and maintained in TRPC5 growth media the day prior to use for experiments. TRPC5 expression was induced by the application of 1 μg/mL tetracycline at the time of plating. […] Cells are incubated at room temperature, protected from light, for 60-90 minutes. After the incubation period, the dye is removed and replaced with 10 μl of EBSS. Cell, pre-incubation and stimulation plates are loaded onto the FLIPR-II and the assay is initiated. The FLIPR measures a 10 second baseline and then adds 10 μl of 2× compounds (or controls). Changes in fluorescence are monitored for an additional 5 minutes. After the 5 minute pre-incubation, 20 μl of 2× Riluzole (with 1× compound or controls) is added to the cell plate. The final Riluzole stimulation concentration in the assay is 30 μM. After the Riluzole addition, changes in fluorescence are monitored for an additional 5 minutes.
Compound modulation of TRPC5 calcium response was determined as follows. After the Englerin A, fluorescence was monitored for a 5-minute period. The maximum relative fluorescence response (minus the control response of 1 μM of an internal control compound known to maximally block TRPC5 calcium response, the “REF INHIB” in the formula below) was captured and exported from the FLIPR.
Compound effect is calculated as % inhibition using the following formula: […]
wherein “RFU” is the relative fluorescent units.

The mark [1] stands for this setting: HEK-TREx hTRPC5 cells, FLIPR, 30 μM Riluzole stimulation, read-out: TRPC5.

Like-named read-outs stand apart in the source and are kept apart here. Bounds are passed on as bounds.

Take `O=c1[nH]ncc(N2CCc3c(ncnc3N(CCO)c3ccc(F)cc3C(F)(F)F)C2)c1Cl` [Compound 136, 4-Chloro-5-(4-[[4-fluoro-2-(trifluoromethyl)phenyl](2-hydroxyethyl)amino]-5H,6H,7H,8H-pyrido[3,4-d]pyrimidin-7-yl)-2,3-dihydropyridazin-3-one]: the IC50 under setting [1] was under 50 nM.

Regarding `C[C@@H]1c2ncnc(Oc3ccc(F)cc3Cl)c2CCN1c1cn[nH]c(=O)c1Cl` [Compound 118, 4-chloro-5-[(8R)-4-(2-chloro-4-fluorophenoxy)-8-methyl-5H,6H,7H,8H-pyrido[3,4-d]pyrimidin-7-yl]-2,3-dihydropyridazin-3-one], the IC50 under setting [1] was in the range of 50 to 500 nM.

Regarding `O=c1[nH]ncc(N2CCc3c(ncnc3Oc3ccccc3C(F)F)C2)c1Cl` [Compound 103, 4-Chloro-5-[4-[2-(difluoromethyl)phenoxy]-5H,6H,7H,8H-pyrido[3,4-d]pyrimidin-7-yl]-2,3-dihydropyridazin-3-one], the IC50 under setting [1] was under 50 nM.

As for `O=c1[nH]ncc(N2CCc3c(ccnc3Oc3ccc(F)cc3C(F)(F)F)C2)c1Cl` [Compound 120, 4-chloro-5-[5-[4-fluoro-2-(trifluoromethyl)phenoxy]-1,2,3,4-tetrahydro-2,6-naphthyridin-2-yl]-2,3-dihydropyridazin-3-one], the IC50 under setting [1] is under 50 nM.

For the molecule `O=c1[nH]ncc(N2CCc3c(nc(NCCO)nc3Oc3ccccc3C(F)(F)F)C2)c1Cl` [Compound 115, 4-chloro-5-[2-[(2-hydroxyethyl)amino]-4-[2-(trifluoromethyl)phenoxy]-5H,6H,7H,8H-pyrido[3,4-d]pyrimidin-7-yl]-2,3-dihydropyridazin-3-one], under setting [1], the IC50 lay in the range of 50 to 500 nM.

As to `O=c1[nH]ncc(N2CCc3c(nc(CO)nc3Oc3ccc(F)cc3C(F)(F)F)C2)c1Cl` [Compound 125], the IC50 under setting [1] was under 50 nM.

`O=c1[nH]ncc(N2CCc3c(ncnc3Oc3ccccc3Cl)C2)c1Cl` [Compound 101]: the IC50 under setting [1] was under 50 nM.

As for `O=c1[nH]ncc(N2CCc3c(ncnc3Oc3cc(F)ccc3C(F)(F)F)C2)c1Cl` [Compound 106], the IC50 under setting [1] is under 50 nM.

As for `C[C@@H](O)c1nc2c(c(Oc3ccc(F)cc3Cl)n1)CCN(c1cn[nH]c(=O)c1Cl)C2` [Compound 119], the IC50 under setting [1] is under 50 nM.

`N#Cc1cccc(Oc2ncnc3c2CCN(c2cn[nH]c(=O)c2Cl)C3)c1Cl` [Compound 108, 2-Chloro-3-[[7-(5-chloro-6-oxo-1,6-dihydropyridazin-4-yl)-5H,6H,7H,8H-pyrido[3,4-d]pyrimidin-4-yl]oxy]benzonitrile]: the IC50 under setting [1] was 50 to 500 nM.

Consider `COc1nc2c(c(Oc3ccc(F)cc3C(F)(F)F)n1)CCN(c1cn[nH]c(=O)c1Cl)C2` [Compound 139, 4-Chloro-5-[4-[4-fluoro-2-(trifluoromethyl)phenoxy]-2-methoxy-5H,6H,7H,8H-pyrido[3,4-d]pyrimidin-7-yl]-2,3-dihydropyridazin-3-one], for which the IC50 under setting [1] was 50 to 500 nM.

As to `O=c1[nH]ncc(N2CCc3c(Oc4ccc(F)cc4C(F)(F)F)ccnc3C2)c1Cl` [Compound 140, 4-chloro-5-[4-[4-fluoro-2-(trifluoromethyl)phenoxy]-5,6,7,8-tetrahydro-1,7-naphthyridin-7-yl]-2,3-dihydropyridazin-3-one], under setting [1], the IC50 was in the range of 50 to 500 nM.

Consider `Cn1c2c(c(Oc3ccc(F)cc3C(F)(F)F)nc1=O)CCN(c1cn[nH]c(=O)c1Cl)C2` [Compound 138, 4-Chloro-5-[4-[4-fluoro-2-(trifluoromethyl)phenoxy]-1-methyl-2-oxo-1H,2H,5H,6H,7H,8H-pyrido[3,4-d]pyrimidin-7-yl]-2,3-dihydropyridazin-3-one], for which, under setting [1], the IC50 was in the range of 50 to 500 nM.

Take `CCc1ncccc1[C@@H](C)n1nnc2c1CCN(c1cn[nH]c(=O)c1Cl)C2` [MS, 4-chloro-5-[1-[(1R)-1-(2-ethylpyridin-3-yl)ethyl]-1H,4H,5H,6H,7H-[1,2,3]triazolo[4,5-c]pyridin-5-yl]-2,3-dihydropyridazin-3-one]: the IC50 is 0.01 to 1000 nM (Table 4, HEK-TREx hTRPC5, read-out: TRPC5-FLIPR IC50) and 0.01 to 1000 nM (Table 7, HEK-TREx hTRPC5, read-out: TRPC5-FLIPR IC50).

Turning to `CN(c1ccc(F)cc1C(F)(F)F)c1cc(=O)n(C)c2c1CCN(c1cn[nH]c(=O)c1Cl)C2` [Compound 127, 7-(5-Chloro-6-oxo-1,6-dihydropyridazin-4-yl)-4-[[4-fluoro-2-(trifluoromethyl)phenyl](methyl)amino]-1-methyl-1,2,5,6,7,8-hexahydro-1,7-naphthyridin-2-one], the IC50 under setting [1] lay in the range of 50 to 500 nM.

On to `CCc1c(F)cccc1Oc1ncnc2c1CCN(c1cn[nH]c(=O)c1Cl)C2` [Compound 109, 4-Chloro-5-[4-(2-ethyl-3-fluorophenoxy)-5H,6H,7H,8H-pyrido[3,4-d]pyrimidin-7-yl]-2,3-dihydropyridazin-3-one], for which the IC50 under setting [1] was under 50 nM.

In the case of `COc1nc2c(c(Oc3ccccc3C(F)(F)F)n1)CCN(c1cn[nH]c(=O)c1Cl)C2` [Compound 110, 4-Chloro-5-[2-methoxy-4-[2-(trifluoromethyl)phenoxy]-5H,6H,7H,8H-pyrido[3,4-d]pyrimidin-7-yl]-2,3-dihydropyridazin-3-one], under setting [1], the IC50 was in the range of 50 to 500 nM.

As for `C[C@H](O)c1nc2c(c(Oc3ccccc3C(F)(F)F)n1)CCN(c1cn[nH]c(=O)c1Cl)C2` (single isomer, unassigned) [Compound 123], the IC50 under setting [1] fell in the range of 50 to 500 nM.

With `Nc1nc2c(c(Oc3ccccc3C(F)(F)F)n1)CCN(c1cn[nH]c(=O)c1Cl)C2` [Compound 102], the IC50 under setting [1] was under 50 nM.

As to `N#Cc1cccc(Oc2ncnc3c2CCN(c2cn[nH]c(=O)c2Cl)C3)c1C(F)(F)F` [Compound 111, 3-[[7-(5-Chloro-6-oxo-1,6-dihydropyridazin-4-yl)-5H,6H,7H,8H-pyrido[3,4-d]pyrimidin-4-yl]oxy]-2-(trifluoromethyl)benzonitrile], the IC50 under setting [1] is 50 to 500 nM.

For the molecule `O=c1[nH]ncc(N2CCc3c(ncnc3Oc3cnccc3C(F)(F)F)C2)c1Cl` [Compound 107], the IC50 under setting [1] is under 50 nM.

With `O=c1[nH]ncc(N2CCc3c(ncnc3C3(c4ccc(F)cc4C(F)(F)F)CC3)C2)c1Cl` [Compound 132, 4-Chloro-5-(4-[1-[4-fluoro-2-(trifluoromethyl)phenyl]cyclopropyl]-5H,6H,7H,8H-pyrido[3,4-d]pyrimidin-7-yl)-2,3-dihydropyridazin-3-one], the IC50 under setting [1] lay in the range of 50 to 500 nM.
